Key:
Glutamate NMDA receptor = assay: Binding affinity against phencyclidine receptor in rat brain membranes using radioligand [3H]TCP.; type: cell membranes
D(2) dopamine receptor = D(2) dopamine receptor (Rattus norvegicus, UniProt P61169); assay: Binding affinity against D-2 dopamine receptor in rat brain membranes using [3H](-)-sulpiride as radioligand.; type: cell membranes
Sigma 2 receptor = assay: Binding affinity against sigma-2 receptor in rat liver using radioligand [3H]DTG in the presence of dextrallorphan.
[1] = molecular target: Muscarinic acetylcholine receptor; assay: Binding affinity against muscarinic receptor in rat brain membranes using radioligand [H}QNB.; type: cell membranes

Sequence of D(2) dopamine receptor (P61169 whole entry): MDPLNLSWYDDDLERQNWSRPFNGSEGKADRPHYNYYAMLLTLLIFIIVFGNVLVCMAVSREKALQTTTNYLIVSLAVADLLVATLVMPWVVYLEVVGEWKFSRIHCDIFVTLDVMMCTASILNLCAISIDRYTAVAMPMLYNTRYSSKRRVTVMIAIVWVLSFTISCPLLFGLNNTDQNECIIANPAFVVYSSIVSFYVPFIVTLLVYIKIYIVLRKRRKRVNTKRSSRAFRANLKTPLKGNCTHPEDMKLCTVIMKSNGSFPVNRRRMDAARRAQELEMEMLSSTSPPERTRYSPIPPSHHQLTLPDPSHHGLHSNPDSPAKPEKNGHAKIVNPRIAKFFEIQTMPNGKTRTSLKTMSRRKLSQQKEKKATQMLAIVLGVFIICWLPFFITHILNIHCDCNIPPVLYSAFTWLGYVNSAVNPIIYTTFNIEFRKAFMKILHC

Row | SMILES | Ki (Glutamate NMDA receptor) [nM] | Ki (D(2) dopamine receptor) [nM] | Ki (Sigma 2 receptor) [nM] | Ki [1] [nM]
1 | O=C(NC1CCN(Cc2ccccc2)CC1)c1ccccc1I | > 100000 | 63.4 | 29.6 | > 100000
2 | O=C(NC1CCN(Cc2ccccc2)CC1)c1ccc(I)cc1 | > 100000 | 382 | 25.2 | > 100000
3 | O=C(NC1CCN(Cc2ccccc2)CC1)c1cccc(I)c1 | > 100000 | 24.8 | 84.6 | > 100000
